Reference: ChEMBL document CHEMBL4765407, “Design, synthesis and high antitumor potential of new unsymmetrical bisacridine derivatives towards human solid tumors, specifically pancreatic cancers and their unique ability to stabilize DNA G-quadruplexes” (Eur J Med Chem, 2020)
pIC50: −log10 of the molar value.

Assays:
DU-145 [1] = test: Cytotoxicity against human DU-145 cells assessed as reduction in cell viability measured after 72 hrs by SRB assay; type: functional, cell-based; settings: DU-145, 72 h
PC-3 [2] = test: Cytotoxicity against human PC-3 cells assessed as reduction in cell viability measured after 72 hrs by SRB assay; type: functional, cell-based; settings: PC-3, 72 h
NCI-H460 [3] = test: Cytotoxicity against human NCI-H460 cells assessed as reduction in cell viability measured after 72 hrs by SRB assay; type: functional, cell-based; settings: NCI-H460, 72 h
HCT-116 [4] = test: Cytotoxicity against human HCT-116 cells assessed as reduction in cell viability measured after 72 hrs by SRB assay; type: functional, cell-based; settings: HCT-116, 72 h
UMUC3 = test: Cytotoxicity against human UMUC3 cells assessed as reduction in cell viability measured after 72 hrs by SRB assay; type: functional, cell-based; settings: UMUC3, 72 h
PANC-1 [5] = test: Cytotoxicity against human PANC-1 cells assessed as reduction in cell viability measured after 72 hrs by SRB assay; type: functional, cell-based; settings: PANC-1, 72 h
MIA PaCa-2 = test: Cytotoxicity against human MIA PaCa-2 cells assessed as reduction in cell viability measured after 72 hrs by SRB assay; type: functional, cell-based; settings: MIA PaCa-2, 72 h
W256 [6] = test: Antitumour activity against Walker 256 adenocarcinoma cells implanted in Wistar rat assessed as increase in animal survival rate by measuring T/C ratio at 20 mg/kg, ip qd for 3 days administered on day 3,4,5 after tumor cell transplantation; type: functional; settings: time 3 day
NCI-H460 [7] = test: Antitumour activity against human NCI-H460 cells xenografted in Crl:Nu-Foxnl nu mouse assessed as inhibition of tumour growth at total effective dose of 60 mg/kg, iv measured on day 17; type: functional; settings: 408 h, time 17 day, read-out: TGI
PANC-1 [8] = test: Antitumour activity against human PANC-1 cells xenografted in Crl:Nu-Foxnl nu mouse assessed as inhibition of tumour growth at total effective dose of 30 mg/kg, iv measured on day 45; type: functional; settings: PANC-1, iv, 1080 h, time 45 day, read-out: TGI
PANC-1 [9] = test: Antitumour activity against human PANC-1 cells xenografted in Crl:Nu-Foxnl nu mouse assessed as inhibition of tumour growth at total effective dose of 10 mg/kg, iv measured on day 37; type: functional; settings: PANC-1, iv, 888 h, time 37 day, read-out: TGI
PC-3 [10] = test: Antitumour activity against human PC-3 cells xenografted in Crl:Nu-Foxnl nu mouse assessed as inhibition of tumour growth at total effective dose of 8 mg/kg, iv measured on day 39; type: functional; settings: PC-3, iv, 936 h, time 39 day, read-out: TGI
Quadruplex DNA [11] = test: Stabilization of 5'-FAM/3'-TAMRA labeled c-Myc promoter G4 quadruplex DNA FPu18 (unknown origin) assessed as change in melting temperature at 10 microM measured after 15 mins by FRET assay; type: nucleic-acid assay
Quadruplex DNA [12] = test: Stabilization of 5'-FAM/3'-TAMRA labeled telomeric G4 quadruplex DNA F21T (unknown origin) assessed as change in melting temperature at 10 microM measured after 15 mins by FRET assay; type: nucleic-acid assay
Quadruplex DNA [13] = test: Stabilization of 5'-FAM/3'-TAMRA labeled K-Ras G4 quadruplex DNA (unknown origin) assessed as change in melting temperature at 10 microM measured after 15 mins by FRET assay; type: nucleic-acid assay
[14] = Stabilization of ds 5'-FAM-d(TATAGCTATA-HEG-TATAGCTATA)-TAMRA-3' (unknown origin) assessed as change in melting temperature at 10 microM measured after 15 mins by FRET assay; settings: Homo sapiens
LNCaP = test: Cytotoxicity against human LNCaP cells assessed as reduction in cell viability measured after 72 hrs by SRB assay; type: functional, cell-based
HT-29 = test: Cytotoxicity against human HT-29 cells assessed as reduction in cell viability measured after 72 hrs by SRB assay; type: functional, cell-based; settings: HT-29, 72 h
MDA-MB-231 = test: Cytotoxicity against human MDA-MB-231 cells assessed as reduction in cell viability measured after 72 hrs by SRB assay; type: functional, cell-based; settings: MDA-MB-231, 72 h
W256 [15] = test: Antitumour activity against Walker 256 adenocarcinoma cells implanted in Wistar rat assessed as increase in animal survival rate by measuring T/C ratio at 6.25 mg/kg, ip qd for 3 days administered on day 3,4,5 after tumor cell transplantation; type: functional; settings: time 3 day
DU-145 [16] = test: Antitumour activity against human DU-145 cells xenografted in Crl:Nu-Foxnl nu mouse assessed as inhibition of tumour growth at total effective dose of 48 mg/kg, ip measured on day 35; type: functional; settings: DU-145, ip, 840 h, time 35 day, read-out: TGI
NCI-H460 [17] = test: Antitumour activity against human NCI-H460 cells xenografted in Crl:Nu-Foxnl nu mouse assessed as inhibition of tumour growth at total effective dose of 30 mg/kg, ip measured on day 14; type: functional; settings: 336 h, time 14 day, read-out: TGI
MCF7 = test: Cytotoxicity against human MCF7 cells assessed as reduction in cell viability measured after 72 hrs by SRB assay; type: functional, cell-based; settings: MCF7, 72 h
ASPC1 = test: Cytotoxicity against human ASPC1 cells assessed as reduction in cell viability measured after 72 hrs by SRB assay; type: functional, cell-based; settings: ASPC1, 72 h
W256 [18] = test: Antitumour activity against Walker 256 adenocarcinoma cells implanted in Wistar rat assessed as increase in animal survival rate by measuring T/C ratio at 2.5 mg/kg, ip qd for 3 days administered on day 3,4,5 after tumor cell transplantation; type: functional; settings: time 3 day
DU-145 [19] = test: Antitumour activity against human DU-145 cells xenografted in Crl:Nu-Foxnl nu mouse assessed as inhibition of tumour growth at total effective dose of 16 mg/kg, iv measured on day 35; type: functional; settings: DU-145, iv, 840 h, time 35 day, read-out: TGI
DU-145 [20] = test: Antitumour activity against human DU-145 cells xenografted in Crl:Nu-Foxnl nu mouse assessed as inhibition of tumour growth at total effective dose of 8 mg/kg, iv measured on day 64; type: functional; settings: DU-145, iv, 1536 h, time 64 day, read-out: TGI
HCT-116 [21] = test: Antitumour activity against human HCT-116 cells xenografted in Crl:Nu-Foxnl nu mouse assessed as inhibition of tumour growth at total effective dose of 18 mg/kg, ip measured on day 14; type: functional; settings: HCT-116, ip, 336 h, time 14 day, read-out: TGI
HCT-116 [22] = test: Antitumour activity against human HCT-116 cells xenografted in Crl:Nu-Foxnl nu mouse assessed as inhibition of tumour growth at total effective dose of 24 mg/kg, iv measured on day 30; type: functional; settings: HCT-116, iv, 720 h, time 30 day, read-out: TGI
NCI-H460 [23] = test: Antitumour activity against human NCI-H460 cells xenografted in Crl:Nu-Foxnl nu mouse assessed as inhibition of tumour growth at total effective dose of 48 mg/kg, iv measured on day 23; type: functional; settings: 552 h, time 23 day, read-out: TGI
W256 [24] = test: Antitumour activity against Walker 256 adenocarcinoma cells implanted in Wistar rat assessed as increase in animal survival rate by measuring T/C ratio at 5 mg/kg, ip qd for 3 days administered on day 3,4,5 after tumor cell transplantation; type: functional; settings: time 3 day
HCT-116 [25] = test: Antitumour activity against human HCT-116 cells xenografted in Crl:Nu-Foxnl nu mouse assessed as inhibition of tumour growth at total effective dose of 100 mg/kg, ip measured on day 23; type: functional; settings: HCT-116, ip, 552 h, time 23 day, read-out: TGI

For `Cc1ccc([N+](=O)[O-])c2c(NCCCN3CCN(CCCNc4ccc([N+](=O)[O-])c5[nH]c6ccccc6c(=O)c45)CC3)c3ccccc3nc12`, the pIC50 (DU-145 [1]) was 7.39, the pIC50 (PC-3 [2]) was 6.44 and the pIC50 (NCI-H460 [3]) was 7.40. It also gave a pIC50 (HCT-116 [4]) of 7.08, a pIC50 (UMUC3) of 7.20 and a pIC50 (PANC-1 [5]) of 6.89. For the same compound, the pIC50 (MIA PaCa-2) was 6.97, the T/C (W256 [6]) was 550% and the inhibition in vivo at 60 mg/kg (NCI-H460 [7]) was 24%. It also gave an inhibition in vivo at 30 mg/kg (PANC-1 [8]) of 72%, an inhibition in vivo at 10 mg/kg (PANC-1 [9]) of 27% and an inhibition in vivo at 8 mg/kg (PC-3 [10]) of 30%. It also gave a ΔTm (Quadruplex DNA [11]) of 19.4 °C, a ΔTm (Quadruplex DNA [12]) of 8.7 °C and a ΔTm (Quadruplex DNA [13]) of 21.6 °C. The ΔTm [14] was 2.6 °C.

With `Cc1ccc([N+](=O)[O-])c2c(NCCCN3CCN(CCCNc4ccc(C)c5[nH]c6ccc(O)cc6c(=O)c45)CC3)c3ccccc3nc12` the pIC50 (DU-145 [1]) was 7.34, the pIC50 (LNCaP) was 6.52 and the pIC50 (HT-29) was 7.21. It also gave a pIC50 (NCI-H460 [3]) of 7.40, a pIC50 (HCT-116 [4]) of 7.33 and a pIC50 (MDA-MB-231) of 7.32. The pIC50 (MIA PaCa-2) was 7.17, the T/C (W256 [15]) was 300% and the inhibition in vivo at 48 mg/kg (DU-145 [16]) was 25%. It also gave an inhibition in vivo at 30 mg/kg (NCI-H460 [17]) of 6%.

For `O=c1c2ccccc2[nH]c2c([N+](=O)[O-])ccc(NCCCN3CCN(CCCNc4c5ccccc5nc5cccc([N+](=O)[O-])c45)CC3)c12`, the pIC50 (DU-145 [1]) was 7.96, the pIC50 (PC-3 [2]) was 7.59 and the pIC50 (NCI-H460 [3]) was 8.05. The pIC50 (HCT-116 [4]) was 7.70, the pIC50 (UMUC3) was 7.77 and the pIC50 (MCF7) was 7.11. For the same compound, the pIC50 (MDA-MB-231) was 7.55, the pIC50 (PANC-1 [5]) was 7.25 and the pIC50 (MIA PaCa-2) was 7.55. For the same compound, the pIC50 (ASPC1) was 7.11, the T/C (W256 [18]) was 400% and the inhibition in vivo at 16 mg/kg (DU-145 [19]) was 77%. It also gave an inhibition in vivo at 8 mg/kg (DU-145 [20]) of 81%, an inhibition in vivo at 18 mg/kg (HCT-116 [21]) of 52% and an inhibition in vivo at 24 mg/kg (HCT-116 [22]) of 34%. For the same compound, the inhibition in vivo at 48 mg/kg (NCI-H460 [23]) was 60%, the ΔTm (Quadruplex DNA [11]) was 23.7 °C and the ΔTm (Quadruplex DNA [12]) was 8.5 °C. For the same compound, the ΔTm (Quadruplex DNA [13]) was 25.1 °C and the ΔTm [14] was 3.2 °C.

Compound `Cc1ccc([N+](=O)[O-])c2c(NCCCN(C)CCCNc3ccc([N+](=O)[O-])c4[nH]c5ccccc5c(=O)c34)c3ccccc3nc12` has a pIC50 (DU-145 [1]) of 7.36, a pIC50 (HT-29) of 6.64 and a pIC50 (NCI-H460 [3]) of 7.26. For the same compound, the pIC50 (HCT-116 [4]) was 7.13, the pIC50 (UMUC3) was 7.27 and the pIC50 (PANC-1 [5]) was 6.96. The T/C (W256 [24]) was 1000%, the inhibition in vivo at 100 mg/kg (HCT-116 [25]) was 52% and the ΔTm (Quadruplex DNA [11]) was 18.8 °C. It also gave a ΔTm (Quadruplex DNA [12]) of 6.8 °C, a ΔTm (Quadruplex DNA [13]) of 28.5 °C and a ΔTm [14] of 2.4 °C.
